System: VDCC
Test: VDCC inhibition: calcium entry (Fluo-4 fluorescence) in SH-SY5Y cells after depolarization with 60 mM KCl
Type: cell-based, human
Conditions: 10 min exposure, 60 mM KCl depolarization
Method: This assay is aimed to determine the VDCC blocker activity of compounds; it is performed using SH-SY5Y neuroblastoma cells. SH-SY5Y cells were plated at 5x10^5 cells per well into Black / Clear Bottom 96-well culture plate, 48 hours before treatment. Cells were loaded with Fluo-4, 5 µM and pluronic acid, 0.1%, for 30 min at 37°C, 5%CO2, following a incubation of 15 min at RT in Krebs-HEPES solution. Immediately cells are exposed to the samples at different concentrations for 10 min. The compounds were tested at […], depending on potency. After the treatment, calcium entry is measured as fluorescence in a Fluostar Optima plate reader (BMG) in response to depolarization with 60 mM KCl. The excitation wavelength was 485 nm, and that of emission 520 nm.

Row | Structure (SMILES) | % of calcium entry inhibition (compound at 10^-5 (M)) [%] | % of calcium entry inhibition (compound at 10^-6 (M)) | % of calcium entry inhibition (compound at 10^-7 (M)) [%]
1 | COc1cc(O)c(C(=O)NCCCCCNC(=O)c2cc(Br)c(OC)cc2O)cc1Br [Compound 5] | 21.8 ± 5 | – | –
2 | COCOc1cc(OC)ccc1C(=O)NCCCOc1c(Br)cc(CCNC(=O)c2ccc(OC)cc2OCOC)cc1Br [Compound 4] | 87.3 ± 5 | 27.3 ± 5% | 6 ± 0
3 | COCOc1cc(OC)ccc1C(=O)NCCCCCCNC(=O)c1ccc(OC)cc1OCOC [Compound 3] | 37.5 ± 7 | 6,6 ± 2% | –
